# Key:
# [1] = Ring stability to hydrolysis, UV absorption changes with time; assay type: physicochemical; conditions: equal volumes methanol-aqueous phosphate buffer (pH 8); for remaining at 1 h: read-out: % Compound Remaining after 1 hr; for remaining at 16 h: read-out: % Compound Remaining after 16 hr; for remaining at 48 h: read-out: % Compound Remaining after 48 hr; for remaining at 165 h: read-out: % Compound Remaining after 165 hr; for remaining at 336 h: read-out: % Compound Remaining after 336 hr
# Protocol: Solutions of these compounds were prepared using equal volumes of methanol-aqueous phosphate buffer (pH 8), and decomposition by cleavage of the heterocyclic ring was monitored using ultraviolet absorption changes with time.
# [2] = system: Alternaria citri MF 2970; experiment: In vitro minimal inhibitory concentration in nutrient agar; assay type: cell-based; conditions: MF2970
# [3] = system: Aspergillus niger MF 11; experiment: as above; assay type: cell-based; conditions: MF11
# [4] = system: Botrytis cinerea MF 4803; experiment: as above; assay type: cell-based; conditions: MF4803
# [5] = system: Cercospora beticola MF 4571; experiment: as above; assay type: cell-based; conditions: MF4571
# [6] = system: Cladosporium Fulvum MF 3238; experiment: as above; assay type: cell-based; conditions: Fulvia fulva
# [7] = system: Colletotrichum lagenarium MF 4800; experiment: as above; assay type: cell-based; conditions: Colletotrichum orbiculare, MF4800
# [8] = system: Diaperthe phaseolorum MF 4668; experiment: as above; assay type: cell-based
# [9] = system: Fusarium oxysporum MF 3413; experiment: as above; assay type: cell-based; conditions: MF3413
# [10] = system: Helminthosporium oryzae MF 4806; experiment: as above; assay type: cell-based; conditions: Bipolaris oryzae, MF4806
# [11] = system: Helminthosporium maydis MF 4775; experiment: as above; assay type: cell-based; conditions: Bipolaris maydis, MF4775
# [12] = system: Monilia nigra MF 3084; experiment: as above; assay type: cell-based; conditions: Moniliella suaveolens, MF3084
# [13] = system: Penicillium digitatum MF 4590; experiment: as above; assay type: cell-based; conditions: MF4590
# [14] = system: Phytophthora cambivora MF 3753; experiment: as above; assay type: cell-based
# [15] = system: Rhizoctonia solani MF 4579; experiment: as above; assay type: cell-based; conditions: MF4579
# [16] = system: Sclerotinia sclerotiorum MF 4739; experiment: as above; assay type: cell-based; conditions: MF4739
# [17] = system: Thielaviopsis basicola MF 3147; experiment: as above; assay type: cell-based; conditions: Berkeleyomyces basicola, MF3147
# [18] = system: Verticillium dahliae MF 2416; experiment: as above; assay type: cell-based; conditions: MF2416
Structure (SMILES),% Compound Remaining after 0 hr [1],remaining at 1 h [1],remaining at 16 h [1],remaining at 48 h [1],remaining at 165 h [1],remaining at 336 h [1],other results
Cc1nsn(Cc2ccc(Cl)cc2)c1=O [drawing 23],100%,100%,100%,97%,93%,91%,
CCCc1nsn(Cc2ccccc2)c1=O,100%,100%,100%,100%,90%,90%,
O=c1cnsn1Cc1ccccc1,100%,100%,96%,80%,50%,26%,
"Cc1nsn(Cc2ccc(Cl)cc2)c1=O [2-[(4-Chlorophenyl)methyl]-4-methyl-1,2,5-thiadiazol-3(2H)-one]",,,,,,,MIC [2]: 4 µg/mL; MIC [3]: 4 µg/mL; MIC [4]: 1 µg/mL; MIC [5]: 1 µg/mL; MIC [6]: 1 µg/mL; MIC [7]: 2 µg/mL; MIC [8]: 0.4 µg/mL; MIC [9]: 4 µg/mL; MIC [10]: 1 µg/mL; MIC [11]: 0.4 µg/mL; MIC [12]: 2 µg/mL; MIC [13]: 4 µg/mL; MIC [14]: 2 µg/mL; MIC [15]: 8 µg/mL; MIC [16]: 0.8 µg/mL; MIC [17]: 4 µg/mL; MIC [18]: 4 µg/mL

# More lines, main results first:
% Compound Remaining after 0 hr [1],remaining at 1 h [1],remaining at 16 h [1],remaining at 48 h [1],remaining at 165 h [1],remaining at 336 h [1],Structure (SMILES),other results
100%,100%,100%,100%,100%,99%,"CCCCCCn1snc(C)c1=O [CH3, n-C6 H13, 2-n-Hexyl-4-methyl-1,2,5-thiadiazol-3(2H)-one]",
100%,48%,6%,0%,,,O=c1c(Cl)nsn1Cc1ccccc1 [reference compound],
100%,,0%,0%,,,O=c1c(Cl)nsn1Cc1ccc(Cl)cc1 [reference compound],
